In patent US12331026B2 (NiKang Therapeutics, Inc., priority 2022, dated 2025):

These compounds were tested against T1, CDK2 (Homo sapiens, UniProt P24941) (assay: Phospho-RB measurement in OVCAR3 cells (HTRF phospho-RB S807/811)). Conditions: phosphorylation of RB protein at S807/811, HTRF, 24 h compound treatment, 0.3 to 10,000 nM, read-out: pRb (uM).
T1 construct: endogenous in cells; host or cells: OVCAR3 cells
Format: cell-based
Summary of the method: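 IC50 values come from four-parameter logistic fits of the DMSO-normalised 665/620 nm TR-FRET ratio for phospho-RB (S807/811). Antibody detection ran 4 h at room temperature.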
`O=S1(=O)C[C@@H]2[C@H](C1)[C@@H]2Nc1nccc(-c2sc(C34CC(C3)C4)nc2-c2cccc(NS(=O)(=O)c3c(F)cccc3C(F)(F)F)c2F)n1` [Example 102, N-(3-(2-(bicyclo[1.1.1]pentan-1-yl)-5-(2-(((1R,5S,6s)-3,3-dioxido-3-thiabicyclo[3.1.0]hexan-6-yl)amino)pyrimidin-4-yl)thiazol-4-yl)-2-fluorophenyl)-2-fluoro-6-(trifluoromethyl)benzenesulfonamide] showed an IC50 of 0.19 µM. Work on `C[C@@H]1CN(C2CC(F)(F)C2)C[C@@H](C)N1c1nc(-c2cccc(NS(=O)(=O)c3c(F)cccc3F)c2F)c(-c2ccnc(NC3CC4(C3)CS(=O)(=O)C4)n2)s1` [Example 61, N-(3-(2-((2R,6R)-4-(3,3-difluorocyclobutyl)-2,6-dimethylpiperazin-1-yl)-5-(2-((2,2-dioxido-2-thiaspiro[3.3]heptan-6-yl)amino)-pyrimidin-4-yl)thiazol-4-yl)-2-fluorophenyl)-2,6-difluoro-benzenesulfonamide] yielded an IC50 of 0.34 µM. `N#CC12CCC(CC1)N2c1nc(-c2cccc(NS(=O)(=O)c3c(F)cccc3F)c2F)c(-c2ccnc(NC3CC4(C3)CS(=O)(=O)C4)n2)s1` [Example 54, N-(3-(2-(1-cyano-7-azabicyclo[2.2.1]heptan-7-yl)-5-(2-((2,2-dioxido-2-thiaspiro[3.3]heptan-6-yl)amino)pyrimidin-4-yl)thiazol-4-yl)-2-fluorophenyl)-2,6-difluorobenzenesulfonamide] was tested, and the IC50 was 0.2 µM. With `O=S1(=O)C[C@@H]2[C@H](C1)[C@H]2Nc1nccc(-c2sc(N3C4CCC3CN(C3CC3)C4)nc2-c2cccc(NS(=O)(=O)c3c(F)cccc3C(F)(F)F)c2F)n1` [Example 130, N-(3-(2-(3-cyclopropyl-3,8-diazabicyclo[3.2.1]octan-8-yl)-5-(2-(((1R,5S,6r)-3,3-dioxido-3-thiabicyclo[3.1.0]hexan-6-yl)amino)-pyrimidin-4-yl)thiazol-4-yl)-2-fluorophenyl)-2-fluoro-6-(trifluoromethyl)benzenesulfonamide] the IC50 was 0.45 µM. `CC1(C)CCCN1c1nc(-c2cccc(NS(=O)(=O)c3c(F)cccc3F)c2F)c(-c2ccnc(NC3CC4(C3)CS(=O)(=O)C4)n2)s1` [Example 24, N-(3-(2-(2,2-dimethylpyrrolidin-1-yl)-5-(2-((2,2-dioxido-2-thiaspiro[3.3]heptan-6-yl)amino)pyrimidin-4-yl)thiazol-4-yl)-2-fluorophenyl)-2,6-difluorobenzenesulfonamide] was tested, and the IC50 was 1.46 µM. `CC1C2(CC(Nc3nccc(-c4sc(C56CC(C5)C6)nc4-c4cccc(NS(=O)(=O)c5c(F)cccc5F)c4F)n3)C2)CS1(=O)=O` (stereo not drawn) [Example 153, N-(3-(2-(bicyclo[1.1.1]pentan-1-yl)-5-(2-((1-methyl-2,2-dioxido-2-thiaspiro[3.3]heptan-6-yl)amino)pyrimidin-4-yl)thiazol-4-yl)-2-fluorophenyl)-2,6-difluorobenzenesulfonamide] showed an IC50 of 0.06 µM. With `CN1CC2CCC(C1)N2c1nc(-c2cccc(NS(=O)(=O)c3c(F)cccc3OC(F)F)c2F)c(-c2ccnc(N[C@H]3[C@@H]4CS(=O)(=O)C[C@@H]43)n2)s1` [Example 122, 2-(difluoromethoxy)-N-(3-(5-(2-(((1R,5S,6r)-3,3-dioxido-3-thiabicyclo[3.1.0]hexan-6-yl)amino)pyrimidin-4-yl)-2-(3-methyl-3,8-diazabicyclo[3.2.1]octan-8-yl)thiazol-4-yl)-2-fluorophenyl)-6-fluorobenzenesulfonamide] the IC50 was 0.04 µM. `O=S1(=O)C[C@@H]2[C@H](C1)[C@H]2Nc1nccc(-c2sc(C34CCC(CC3)CC4)nc2-c2cccc(NS(=O)(=O)c3c(F)cccc3F)c2F)n1` [Example 116, N-(3-(2-(bicyclo[2.2.2]octan-1-yl)-5-(2-(((1R,5S,6r)-3,3-dioxido-3-thiabicyclo[3.1.0]hexan-6-yl)amino)pyrimidin-4-yl)thiazol-4-yl)-2-fluorophenyl)-2,6-difluorobenzenesulfonamide] was tested, and the IC50 was 0.09 µM. Work on `O=S1(=O)C[C@@H]2[C@H](C1)[C@H]2Nc1nccc(-c2sc(C34CC(C3)C4)nc2-c2cccc(NS(=O)(=O)c3c(F)cccc3C(F)(F)F)c2F)n1` [Example 103, N-(3-(2-(bicyclo[1.1.1]pentan-1-yl)-5-(2-(((1R,5S,6r)-3,3-dioxido-3-thiabicyclo[3.1.0]hexan-6-yl)amino)pyrimidin-4-yl)thiazol-4-yl)-2-fluorophenyl)-2-fluoro-6-(trifluoromethyl)benzenesulfonamide] yielded an IC50 of 0.1 µM. With `O=S1(=O)CC2(CC(Nc3nccc(-c4sc(C5(C(F)(F)F)CC5)nc4-c4cccc(NS(=O)(=O)c5c(F)cccc5F)c4F)n3)C2)C1` [Example 89, N-(3-(5-(2-((2,2-dioxido-2-thiaspiro[3.3]heptan-6-yl)amino)-pyrimidin-4-yl)-2-(1-(trifluoromethyl)cyclopropyl)thiazol-4-yl)-2-fluorophenyl)-2,6-difluorobenzenesulfonamide] the IC50 was 0.12 µM. `O=S1(=O)CC2(CC(Nc3nccc(-c4sc(C56CC(C5)C6)nc4-c4cccc(NS(=O)(=O)c5c(F)cccc5C(F)F)c4F)n3)C2)C1` [Example 47, N-(3-(2-(bicyclo[1.1.1]pentan-1-yl)-5-(2-((2,2-dioxido-2-thiaspiro[3.3]heptan-6-yl)amino)pyrimidin-4-yl)thiazol-4-yl)-2-fluorophenyl)-2-(difluoromethyl)-6-fluorobenzenesulfonamide] gave an IC50 of 0.05 µM. With `O=S1(=O)C[C@@H]2[C@H](C1)[C@H]2Nc1nccc(-c2sc(N3C4CCC3CN(C3CC(F)(F)C3)C4)nc2-c2cccc(NS(=O)(=O)c3c(F)cccc3F)c2F)n1` [Example 107, N-(3-(2-(3-(3,3-difluorocyclobutyl)-3,8-diazabicyclo[3.2.1]octan-8-yl)-5-(2-(((1R,5S,6r)-3,3-dioxido-3-thiabicyclo[3.1.0]hexan-6-yl)amino)pyrimidin-4-yl)thiazol-4-yl)-2-fluorophenyl)-2,6-difluorobenzenesulfonamide] the IC50 was 0.15 µM. `O=S1(=O)C[C@@H]2[C@H](C1)[C@H]2Nc1nccc(-c2sc(C3(C(F)F)CC3)nc2-c2cccc(NS(=O)(=O)c3c(F)cccc3C(F)(F)F)c2F)n1` [Example 128, N-(3-(2-(1-(difluoromethyl)cyclopropyl)-5-(2-(((1R,5S,6r)-3,3-dioxido-3-thiabicyclo[3.1.0]hexan-6-yl)amino)pyrimidin-4-yl)thiazol-4-yl)-2-fluorophenyl)-2-fluoro-6-(trifluoromethyl)-benzenesulfonamide] showed an IC50 of 0.05 µM. Compound `O=S1(=O)CC2(CC(Nc3nccc(-c4sc(C56CC(Cl)(C5)C6)nc4-c4cccc(NS(=O)(=O)c5c(F)cccc5C(F)(F)F)c4F)n3)C2)C1` [Example 150, N-(3-(2-(3-chlorobicyclo[1.1.1]pentan-1-yl)-5-(2-((2,2-dioxido-2-thiaspiro[3.3]heptan-6-yl)amino)pyrimidin-4-yl)thiazol-4-yl)-2-fluorophenyl)-2-fluoro-6-(trifluoromethyl)benzenesulfonamide] has an IC50 of 0.17 µM. `O=C1CC2CCC(C1)N2c1nc(-c2cccc(NS(=O)(=O)c3c(F)cccc3F)c2F)c(-c2ccnc(NC3CC4(C3)CS(=O)(=O)C4)n2)s1` [Example 17, N-(3-(5-(2-((2,2-dioxido-2-thiaspiro[3.3]heptan-6-yl)amino)pyrimidin-4-yl)-2-(3-oxo-8-azabicyclo[3.2.1]octan-8-yl)thiazol-4-yl)-2-fluorophenyl)-2,6-difluorobenzenesulfonamide] showed an IC50 of 0.48 µM. Compound `O=S1(=O)CC2(CC(Nc3nccc(-c4sc(N5C6CCC5CN(C5CCC5)C6)nc4-c4cccc(NS(=O)(=O)c5c(F)cccc5F)c4F)n3)C2)C1` [Example 52, N-(3-(2-(3-cyclobutyl-3,8-diazabicyclo[3.2.1]octan-8-yl)-5-(2-((2,2-dioxido-2-thiaspiro[3.3]heptan-6-yl)amino)pyrimidin-4-yl)thiazol-4-yl)-2-fluorophenyl)-2,6-difluorobenzenesulfonamide] has an IC50 of 0.08 µM. For `CN1CC2CCC1CN2c1nc(-c2cccc(NS(=O)(=O)c3c(F)cccc3F)c2F)c(-c2ccnc(NC3CC4(C3)CS(=O)(=O)C4)n2)s1` (stereo not drawn) [Example 28, N-(3-(5-(2-((2,2-dioxido-2-thiaspiro[3.3]heptan-6-yl)amino)pyrimidin-4-yl)-2-(5-methyl-2,5-diazabicyclo[2.2.2]octan-2-yl)thiazol-4-yl)-2-fluorophenyl)-2,6-difluorobenzenesulfonamide], the IC50 was 1.17 µM. `CS(=O)(=O)C1CCC(Nc2nccc(-c3sc(C45CC(F)(C4)C5)nc3-c3cccc(NS(=O)(=O)c4c(F)cccc4C(F)(F)F)c3F)n2)CC1` (stereo not drawn) [Example 27, 2-fluoro-N-(2-fluoro-3-(2-(3-fluorobicyclo[1.1.1]pentan-1-yl)-5-(2-(((1s,4s)-4-(methylsulfonyl)cyclohexyl)amino)pyrimidin-4-yl)thiazol-4-yl)phenyl)-6-(trifluoromethyl)benzenesulfonamide] showed an IC50 of 0.066 µM. With `O=S1(=O)CC2(CC(Nc3nccc(-c4sc(N5CC6CCC5CC6)nc4-c4cccc(NS(=O)(=O)c5c(F)cccc5F)c4F)n3)C2)C1` [Example 18, N-(3-(2-(2-azabicyclo[2.2.2]octan-2-yl)-5-(2-((2,2-dioxido-2-thiaspiro[3.3]heptan-6-yl)amino)pyrimidin-4-yl)thiazol-4-yl)-2-fluorophenyl)-2,6-difluorobenzenesulfonamide] the IC50 was 0.079 µM. In the case of `O=S1(=O)CC2(CC(Nc3nccc(-c4sc(C56CC(F)(C5)C6)nc4-c4cccc(NS(=O)(=O)c5c(F)cccc5F)c4F)n3)C2)C1` [Example 7, N-(3-(5-(2-((2,2-dioxido-2-thiaspiro[3.3]heptan-6-yl)amino)pyrimidin-4-yl)-2-(3-fluorobicyclo[1.1.1]pentan-1-yl)thiazol-4-yl)-2-fluorophenyl)-2,6-difluorobenzenesulfonamide], the IC50 is reported as 0.39 µM. `O=S1(=O)CC2(CC(Nc3nccc(-c4sc(C56CC(C5)C6)nc4-c4cccc(NS(=O)(=O)c5c(F)cccc5C5CC5)c4F)n3)C2)C1` [Example 41, N-(3-(2-(bicyclo[1.1.1]pentan-1-yl)-5-(2-((2,2-dioxido-2-thiaspiro[3.3]heptan-6-yl)amino)pyrimidin-4-yl)thiazol-4-yl)-2-fluorophenyl)-2-cyclopropyl-6-fluorobenzenesulfonamide] was tested, and the IC50 was 0.36 µM.
